The values below are quoted from earlier work in patent US20090214598A1, “Monovalent and polyvalent synthetic polysaccharide antigens for immunological intervention in disease” (Eli Lilly and Company, priority 2005, published 2009).

For this series the following is noted: literature reports (U.S. Pat. No. 4,395,399; Chedid 1983).

As to `CC(=O)N[C@H]1C(O)O[C@H](CO)[C@@H](O)[C@@H]1O[C@H](C)C(=O)N[C@@H](C)C(=O)N[C@H](CCC(=O)O)C(N)=O` (mixture of isomers) [MDP, muramyl dipeptide], the “inflammatory response as reported” value is “inflammatory in nature”.
